Measured values taken from PMC6273433, “Design, Synthesis and Cytotoxicity of Novel Dihydroartemisinin-Coumarin Hybrids via Click Chemistry” (Molecules, 2016).
pIC50: −log10 of the molar value. Where two headings read alike, the source gives them in different places.

What was measured:
[1] = test system: HCT-116 (human colorectal cancer cell line); assay: MTT cytotoxicity assay, HCT-116 under anoxia or normoxia; type: cell-based; details: for HCT-116 Value = IC50(normoxia)/IC50(anoxia): HCT-116, activity promotion under anoxia, >100 set as 100; for pIC50: Homo sapiens
Procedure: (§1) We focused our attention on the cytotoxicity of the four series of newly-synthesized compounds (10a–e, 11a–e, 12a–e, and 13a–e) under normoxic or anoxic conditions.
(§2) The data was calculated by the Logit method and presented as IC50 values in Table 1.
(§3) All of the newly-synthesized compounds were screened for in vitro cytotoxicity by MTT assay. The exponentially-growing MRC-5, HCT-116, MDA-MB-231, and HT-29 cells were allowed to grow until 80% confluency, the culture medium was discarded, digested with trypsin, separated centrifugally, then fresh culture medium was added and blown gently into single-cell suspension. Then, the cell suspension was seeded into each well of 96-well microculture plates at a concentration of 1.5 × 10^3–3 × 10^3 cells/well.
(§4) The cells were incubated with 50 μL of 2 mg/mL MTT solution for 4 h in a humidified incubator. The supernatant was discarded, and the media were then replaced with 200 μL of dimethyl sulfoxide to dissolve the purple colored formazan crystals formed in the wells, and their absorbances were measured at 492 nm with a microplate reader (Synergy-HT, BioTek Instruments, Winooski, VT, USA); 200 μL DMSO was set as the blank control.
(§5) The anoxia condition was achieved by placing cells in a sealed hypoxia incubator chamber (Catalog Number 27310, Stemcell Technologies, Inc., Vancouver, BC, Canada) filled with 5% CO2 and 95% N2.

[2] = test system: HT-29 (human colon carcinoma cell line, overexpresses high amounts of CA IX); assay: MTT cytotoxicity assay, HT-29 under anoxia or normoxia; type: cell-based; details: for HT-29 Value = IC50(normoxia)/IC50(anoxia): HT-29, activity promotion under anoxia; for pIC50: Homo sapiens
Procedure: as §1, §2, §3, §4, §5

[3] = test system: MDA-MB-231 (human breast carcinoma cell line, CA IX negative); assay: MTT cytotoxicity assay, MDA-MB-231 under anoxia or normoxia; type: cell-based; details: for pIC50: Homo sapiens; for MDA-MB-231 Value = IC50(normoxia)/IC50(anoxia): MDA-MB-231, activity promotion under anoxia, >100 set as 100
Procedure: as §1, §2, §3, §4, §5

[4] = test system: MRC-5 (human fetal lung fibroblast cells, normal lung cell); assay: MTT cytotoxicity assay, MRC-5 normal cells; type: cell-based; details: MRC5, MRC-5, normoxia, 96 h MTT
Procedure: as §1, §2, §3, §4

[5] = HCT-116, anoxia 24 h then normoxia 72 h, MTT, read-out: IC50 HCT-116 Anoxia
[6] = HCT-116, normoxia, 96 h MTT, read-out: IC50 HCT-116 Normoxia
[7] = HT-29, anoxia 24 h then normoxia 72 h, MTT, read-out: IC50 HT-29 Anoxia
[8] = HT-29, normoxia, 96 h MTT, read-out: IC50 HT-29 Normoxia
[9] = MDA-MB-231, anoxia 24 h then normoxia 72 h, MTT, read-out: IC50 MDA-MB-231 Anoxia
[10] = MDA-MB-231, normoxia, 96 h MTT, read-out: IC50 MDA-MB-231 Normoxia

melting point | SMILES | HCT-116 Value = IC50(normoxia)/IC50(anoxia) [1] | pIC50 [1, 5] | pIC50 [1, 6] | HT-29 Value = IC50(normoxia)/IC50(anoxia) [2] | pIC50 [2, 7] | pIC50 [2, 8] | pIC50 [3, 9] | pIC50 [3, 10] | MDA-MB-231 Value = IC50(normoxia)/IC50(anoxia) [3] | pIC50 [4]
 | Cc1cc(=O)oc2cc(OCCn3cc(CO[C@H]4O[C@@H]5O[C@@]6(C)CC[C@H]7[C@H](C)CC[C@@H]([C@H]4C)[C@@]57OO6)nn3)ccc12 [10a, 7-(2-(4-(10β-Dihydroartemisininoxy)methyl)-1H-1,2,3-triazol-1-yl)ethoxy-4-methyl-2H-chromen-2-one] | 0.86 | 4.92 | 4.99 | 8.35 | 5.83 | 4.91 | 4.43 | 4.28 | 1.42 | 4.55
 | C[C@H]1[C@@H](OCc2cn(CCOc3ccc4c(C(F)(F)F)cc(=O)oc4c3)nn2)O[C@@H]2O[C@@]3(C)CC[C@H]4[C@H](C)CC[C@@H]1[C@@]24OO3 [10b, 7-(2-(4-(10β-Dihydroartemisininoxy)methyl)-1H-1,2,3-triazol-1-yl)ethoxy-4-trifluoromethyl-2H-chromen-2-one] | 0.78 | 5.08 | 5.19 | 4.99 | 5.66 | 4.96 | 4.61 | 4.55 | 1.13 | 4.47
 | Cc1c(C)c2ccc(OCCn3cc(CO[C@H]4O[C@@H]5O[C@@]6(C)CC[C@H]7[C@H](C)CC[C@@H]([C@H]4C)[C@@]57OO6)nn3)cc2oc1=O [10c, 7-(2-(4-(10β-Dihydroartemisininoxy)methyl)-1H-1,2,3-triazol-1-yl)ethoxy-3,4-dimethyl-2H-chromen-2-one] | 0.95 | 5.16 | 5.19 | 11.50 | 5.74 | 4.68 | 4.48 | 4.49 | 0.97 | 4.65
 | Cc1c(Cl)c(=O)oc2cc(OCCn3cc(CO[C@H]4O[C@@H]5O[C@@]6(C)CC[C@H]7[C@H](C)CC[C@@H]([C@H]4C)[C@@]57OO6)nn3)ccc12 [10d, 3-Chloro-7-(2-(4-(10β-dihydroartemisininoxy)methyl)-1H-1,2,3-triazol-1-yl)ethoxy-4-methyl-2H-chromen-2-one] | 0.79 | 5.28 | 5.38 |  | 7.30 | 4.75 | 4.53 | 4.21 | 2.10 | 4.29
 | CCOC(=O)c1cc2ccc(OCCn3cc(CO[C@H]4O[C@@H]5O[C@@]6(C)CC[C@H]7[C@H](C)CC[C@@H]([C@H]4C)[C@@]57OO6)nn3)cc2oc1=O [10e, Ethyl 2-oxo-7-(2-(4-(10β-dihydroartemisininoxy)methyl)-1H-1,2,3-triazol-1-yl)ethoxy-2H-chromene-3-carboxylate] | 1.79 | 4.54 | 4.29 | 3.66 | 5.06 | 4.50 | 4.04 | < 4.00 |  | 4.28
 | Cc1cc(=O)oc2cc(OCCCn3cc(CO[C@H]4O[C@@H]5O[C@@]6(C)CC[C@H]7[C@H](C)CC[C@@H]([C@H]4C)[C@@]57OO6)nn3)ccc12 [11a, 7-(3-(4-(10β-Dihydroartemisininoxy)methyl)-1H-1,2,3-triazol-1-yl)propoxy-4-methyl-2H-chromen-2-one] | 1.36 | 5.22 | 5.09 | 7.17 | 5.91 | 5.06 | 4.75 | 4.29 | 2.87 | 4.81
 | C[C@H]1[C@@H](OCc2cn(CCCOc3ccc4c(C(F)(F)F)cc(=O)oc4c3)nn2)O[C@@H]2O[C@@]3(C)CC[C@H]4[C@H](C)CC[C@@H]1[C@@]24OO3 [11b, 7-(3-(4-(10β-Dihydroartemisininoxy)methyl)-1H-1,2,3-triazol-1-yl)propoxy-4-trifluoromethyl-2H-chromen-2-one] | 1.38 | 5.03 | 4.89 | 1.63 | 5.30 | 5.08 | 4.43 | 4.14 | 1.97 | 4.36
 | Cc1c(C)c2ccc(OCCCn3cc(CO[C@H]4O[C@@H]5O[C@@]6(C)CC[C@H]7[C@H](C)CC[C@@H]([C@H]4C)[C@@]57OO6)nn3)cc2oc1=O [11c, 7-(3-(4-(10β-Dihydroartemisininoxy)methyl)-1H-1,2,3-triazol-1-yl)propoxy-3,4-dimethyl-2H-chromen-2-one] | 1.27 | 4.78 | 4.68 | 0.83 | 4.63 | 4.71 | 4.40 | 4.25 | 1.41 | 4.22
 | Cc1c(Cl)c(=O)oc2cc(OCCCn3cc(CO[C@H]4O[C@@H]5O[C@@]6(C)CC[C@H]7[C@H](C)CC[C@@H]([C@H]4C)[C@@]57OO6)nn3)ccc12 [11d, 3-Chloro-7-(3-(4-(10β-dihydroartemisininoxy)methyl)-1H-1,2,3-triazol-1-yl)propoxy-4-methyl-2H-chromen-2-one] | 1.28 | 5.22 | 5.11 | 2.90 | 5.87 | 5.41 | 4.65 | 4.29 | 2.29 | < 4.00
 | CCOC(=O)c1cc2ccc(OCCCn3cc(CO[C@H]4O[C@@H]5O[C@@]6(C)CC[C@H]7[C@H](C)CC[C@@H]([C@H]4C)[C@@]57OO6)nn3)cc2oc1=O [11e, Ethyl 2-oxo-7-(3-(4-(10β-dihydroartemisininoxy)methyl)-1H-1,2,3-triazol-1-yl)propoxy-2H-chromene-3-carboxylate] | 1.57 | 4.55 | 4.36 | 4.25 | 4.92 | 4.29 | 4.30 | 3.92 | 2.38 | 4.41
79 to 81 °C | Cc1cc(=O)oc2cc(OCc3cn(CCO[C@H]4O[C@@H]5O[C@@]6(C)CC[C@H]7[C@H](C)CC[C@@H]([C@H]4C)[C@@]57OO6)nn3)ccc12 [12a, 7-(1-(2-(10β-Dihydroartemisininoxy)ethyl)-1H-1,2,3-triazol-4-yl)methoxy-4-methyl-2H-chromen-2-one] | 1.50 | 4.74 | 4.56 | 3.11 | 4.97 | 4.48 | 4.32 | 3.90 | 2.63 | 4.43
77 to 79 °C | C[C@H]1[C@@H](OCCn2cc(COc3ccc4c(C(F)(F)F)cc(=O)oc4c3)nn2)O[C@@H]2O[C@@]3(C)CC[C@H]4[C@H](C)CC[C@@H]1[C@@]24OO3 [12b, 7-(1-(2-(10β-Dihydroartemisininoxy)ethyl)-1H-1,2,3-triazol-4-yl)methoxy-4-trifluoromethyl-2H-chromen-2-one] | 0.35 | 4.61 | 5.07 | 4.62 | 5.61 | 4.95 | 4.83 | 4.40 | 2.73 | 4.73
 | COc1cccc2c1C(=O)c1c(O)c3c(c(O)c1C2=O)C[C@@](O)(C(=O)CO)C[C@@H]3O[C@H]1C[C@H](N)[C@H](O)[C@H](C)O1 [DOX, doxorubicin, reference compound] | 0.39 | 6.82 | 7.22 | 1.74 | 7.30 | 7.05 | 6.43 | 6.57 | 0.73 | 6.47
